The values that follow come from US9775902B2, “Compounds and methods for treatment of stroke” (FIBROGEN, INC, priority 2006, dated 2017).

Assay [1] relates to erythropoietin (EPO). Description: EPO expression in Hep3B cells (QUANTIKINE immunoassay of conditioned media). In kind it is cell-based, Human. The conditions noted are these: for EPO: conditioned media after overnight incubation with compound; for Fold Increase Over Control: EPO, vs 1% DMSO control. How it is done:
The effect of compounds of the present invention on expression of cytoprotective and neuroprotective factors in cells was evaluated as follows. Human cells derived from hepatocarcinoma (Hep3B) tissue (see, e.g., American Type Culture Collection, Manassas Va.) were seeded into 35 mm culture dishes and grown at 37° C., 20% O2, 5% CO2 in Minimal Essential Medium (MEM), Earle's balanced salt solution (Mediatech Inc., Herndon Va.), 2 mM L-glutamine, 0.1 mM non-essential amino acids, 1 mM sodium pyruvate, and 10% FBS. When cell layers reached confluence, the media was replaced with OPTI-MEM media (Invitrogen Life Technologies, Carlsbad Calif.) and cell layers were incubated for approximately 24 hours in 20% O2, 5% CO2 at 37° C. Various compounds of the present invention or 1% DMSO (negative control) were then added to existing media and incubation was continued overnight.
Following incubation, the conditioned media was collected from cell cultures and analyzed for erythropoietin (EPO) expression using a QUANTIKINE immunoassay (R&D Systems, Inc., Minneapolis Minn.) according to the manufacturer's instructions.

Another assay deals with erythropoietin. In words: Plasma EPO in mice after intravenous injection. In kind it is in vivo, Swiss Webster mice. The conditions noted are these: mouse plasma, 20 mg/kg i.v., four hours after injection; for fold induction at 20 mg/kg: iv, 4 h, read-out: EPO Fold Increase; for EPO: mouse EPO ELISA kit (**). How it is done: (§1) The effect of compounds of the present invention on expression of cytoprotective and neuroprotective factors in vivo was evaluated as follows. In one series of experiments, male Swiss Webster mice (29-34 g) were administered various compounds of the present invention via intravenous injection into the caudal tail vein. Animals treated by intravenous injection received a 6 ml/kg volume of either 5% Dextrose with an equimolar amount of NaOH or Meglumine (vehicle control) or 20 mg/kg of a compound of the present invention in 5% dextrose with an equimolar amount of NaOH or Meglumine. Four hours after injection, the animals were anesthetized and exsanguinated. Plasma samples were collected in EDTA and heparin coated microtainer tubes. Plasma samples were assayed for erythropoietin and VEGF using commercially-available ELISA kits purchased from R & D Systems (Minneapolis Minn.).
(In an ELISA, binding on a coated surface is turned into a signal by an enzyme label.)

In the next assay the test system is VEGF. Description: Plasma VEGF in mice after intravenous injection. In kind it is in vivo, Swiss Webster mice. The conditions noted are these: mouse plasma, 20 mg/kg i.v., four hours after injection; for fold induction at 20 mg/kg: iv, 4 h, read-out: VEGF Fold Increase. The protocol: as §1
Assay [2] concerns vascular endothelial growth factor (VEGF). Description: VEGF expression in Kelly neuroblastoma cells. In kind it is cell-based. The conditions noted are these: for VEGF: conditioned media after overnight incubation. How it is done: (§2) The effect of compounds of the present invention on expression of cytoprotective and neuroprotective factors in neuroblastoma cells was evaluated as follows. Kelly neuroblastoma cells (see, e.g., DSMZ, cat# ACC-355, Braunschweig Germany) were treated with various compounds of the present invention or 1% DMSO (negative control). Following an overnight incubation, the conditioned media was collected from cell cultures and analyzed for erythropoietin (EPO) and vascular endothelial growth factor (VEGF) expression using a QUANTIKINE immunoassay (R&D Systems, Inc., Minneapolis Minn.) according to the manufacturer's instructions.

The test system of assay [3] is erythropoietin (EPO). In words: EPO expression in Kelly neuroblastoma cells. In kind it is cell-based. The conditions noted are these: for EPO: conditioned media after overnight incubation. How it is done: as §2

For `Cc1nc(C(=O)NCC(=O)O)c(O)c2ccc(Oc3ccccc3)cc12` [Compound J, [(4-Hydroxy-1-methyl-7-phenoxy-isoquinoline-3-carbonyl)-amino]-acetic acid], the EPO with erythropoietin (EPO) [1] is listed as 120.0 mIU/ml.

For the compound `O=C(O)CNC(=O)c1ncc2c(-c3ccc(F)cc3)c(-c3ccc(F)cc3)sc2c1O` [Compound AJ, {[2,3-Bis-(4-fluoro-phenyl)-7-hydroxy-thieno[3,2-c]pyridine-6-carbonyl]-amino}-acetic acid], in the assay with erythropoietin, the fold induction at 20 mg/kg was determined as 2.53 and the EPO came out at 271 pg/mL. For the same compound, in the assay on VEGF, the fold induction at 20 mg/kg turned out to be 1.16 and the VEGF was determined as 29 pg/mL. Besides, in the assay on erythropoietin (EPO) [1], the “Fold Increase Over Control” value came out at 42.8 and the EPO is listed as 62.9 mIU/ml. Also, in assay [2], the “VEGF Fold Increase” value is recorded as 3.0 and the VEGF was found to be 4102 pg/mL.

On to `O=C(O)CNC(=O)c1nc(Cl)c2ccccc2c1O` [Compound A, [(1-Chloro-4-hydroxy-isoquinoline-3-carbonyl)-amino]-acetic acid], for which, in the assay on erythropoietin (EPO) [1], the “Fold Increase Over Control” value stood at 13.6 and the EPO is on record as 18.3 mIU/ml.

In the case of `Cc1nc2ccc(Oc3ccc4c(C#N)nc(C(=O)NCC(=O)O)c(O)c4c3)cc2o1` [Compound AQ, {[1-Cyano-4-hydroxy-6-(2-methyl-benzooxazol-6-yloxy)-isoquinoline-3-carbonyl]-amino}-acetic acid], in the assay on erythropoietin (EPO) [3], the “EPO Fold Increase” value is reported as 4.34 and the EPO was found to be 82 mIU/ml. Also, in the assay on erythropoietin, the fold induction at 20 mg/kg is 23.8 and the EPO came to 11464 pg/mL. Also, in the assay on VEGF, the fold induction at 20 mg/kg came to 1.69 and the VEGF is 59 pg/mL. Moreover, in the assay with erythropoietin (EPO) [1], the “Fold Increase Over Control” value stood at 16.5 and the EPO was determined as 32.9 mIU/ml. For the same compound, in assay [2], the “VEGF Fold Increase” value was 2.6 and the VEGF worked out at 3795 pg/mL.

Turning to `O=C(O)CNC(=O)c1nc2ccc(Oc3ccccc3)cc2cc1O` [Compound C, [(3-Hydroxy-6-phenoxy-quinoline-2-carbonyl)-amino]-acetic acid], in the assay on erythropoietin (EPO) [3], the “EPO Fold Increase” value is recorded as 3.5 and the EPO is given as 21.8 mIU/ml. In the assay on erythropoietin (EPO) [1], the “Fold Increase Over Control” value was 2.2 and the EPO is 241.4 mIU/ml. Moreover, in assay [2], the “VEGF Fold Increase” value is given as 9.1 and the VEGF amounted to 1445.7 pg/mL.

On to `CCc1c(O)c(C(=O)NCC(=O)O)nc2cc(Cl)ccc12` [Compound AT, [(7-Chloro-4-ethyl-3-hydroxy-quinoline-2-carbonyl)-amino]-acetic acid], for which, in the assay on erythropoietin (EPO) [3], the “EPO Fold Increase” value turned out to be 31.08 and the EPO was 587.5 mIU/ml. Besides, in the assay with erythropoietin, the fold induction at 20 mg/kg turned out to be 3.84 and the EPO was found to be 169 pg/mL. In addition, in the assay on VEGF, the fold induction at 20 mg/kg worked out at 1.02 and the VEGF turned out to be 43 pg/mL. Besides, in the assay on erythropoietin (EPO) [1], the “Fold Increase Over Control” value was determined as 30.0 and the EPO worked out at 81.0 mIU/ml. Moreover, in assay [2], the “VEGF Fold Increase” value is 8.3 and the VEGF was 11350 pg/mL.

On to `O=C(O)CNC(=O)c1nc(-c2ccoc2)c2ccsc2c1O` [Compound AI, [(4-Furan-3-yl-7-hydroxy-thieno[3,2-c]pyridine-6-carbonyl)-amino]-acetic acid], for which, in the assay with erythropoietin (EPO) [3], the “EPO Fold Increase” value came out at 17.02 and the EPO worked out at 321.6 mIU/ml. In the assay on erythropoietin, the fold induction at 20 mg/kg came to 1.96 and the EPO came out at 221 pg/mL. In the assay with VEGF, the fold induction at 20 mg/kg was found to be 0.91 and the VEGF was determined as 20 pg/mL. In addition, in the assay with erythropoietin (EPO) [1], the “Fold Increase Over Control” value turned out to be 6.1 and the EPO was found to be 7.9 mIU/ml. Further, in assay [2], the “VEGF Fold Increase” value was found to be 4.8 and the VEGF came to 7003 pg/mL.

Take `O=C(O)CNC(=O)c1nc2cc(Cl)ccc2c(-c2cccc(C(F)(F)F)c2)c1O` [Compound AU, {[7-Chloro-3-hydroxy-4-(3-trifluoromethyl-phenyl)-quinoline-2-carbonyl]-amino}-acetic acid]: in the assay with erythropoietin (EPO) [3], the “EPO Fold Increase” value is 4.16 and the EPO stood at 109.1 mIU/ml. For the same compound, in the assay with erythropoietin (EPO) [1], the “Fold Increase Over Control” value came to 7.1 and the EPO is reported as 19.2 mIU/ml. In addition, in assay [2], the “VEGF Fold Increase” value was 5.1 and the VEGF was determined as 6877 pg/mL.

Turning to `N#Cc1nc(C(=O)NCC(=O)O)c(O)c2cccc(Oc3ccccc3)c12` [Compound W, [(1-Cyano-4-hydroxy-8-phenoxy-isoquinoline-3-carbonyl)-amino]-acetic acid], in the assay with erythropoietin (EPO) [3], the “EPO Fold Increase” value came out at 11.35 and the EPO was 214.6 mIU/ml. For the same compound, in the assay with erythropoietin, the fold induction at 20 mg/kg was 45.6 and the EPO stood at 725.4 pg/mL. For the same compound, in the assay on VEGF, the fold induction at 20 mg/kg was determined as 1.38 and the VEGF was 40 pg/mL. Further, in assay [2], the “VEGF Fold Increase” value turned out to be 5.0 and the VEGF turned out to be 1846 pg/mL.

Take `N#Cc1nc(C(=O)NCC(=O)O)c(O)c2ccc(Cc3ccccc3)cc12` [Compound AR, [(7-Benzyl-1-cyano-4-hydroxy-isoquinoline-3-carbonyl)-amino]-acetic acid]: in the assay with erythropoietin (EPO) [3], the “EPO Fold Increase” value stood at 32.17 and the EPO was 842.9 mIU/ml. Further, in the assay with erythropoietin, the fold induction at 20 mg/kg came to 22.8 and the EPO came out at 11000 pg/mL. In the assay on VEGF, the fold induction at 20 mg/kg stood at 0.83 and the VEGF came to 29 pg/mL. In addition, in the assay on erythropoietin (EPO) [1], the “Fold Increase Over Control” value was determined as 21.8 and the EPO is 82.7 mIU/ml. In addition, in assay [2], the “VEGF Fold Increase” value was determined as 10.8 and the VEGF was determined as 14745 pg/mL.

For the compound `COc1cccc(Oc2cccc3c(O)c(C(=O)NCC(=O)O)nc(C#N)c23)c1` [Compound AP, {[1-Cyano-4-hydroxy-8-(3-methoxy-phenoxy)-isoquinoline-3-carbonyl]-amino}-acetic acid], in the assay on erythropoietin (EPO) [3], the “EPO Fold Increase” value was 1.44 and the EPO came out at 27.2 mIU/ml. Further, in the assay with erythropoietin, the fold induction at 20 mg/kg came out at 20.1 and the EPO turned out to be 3595 pg/mL. In addition, in the assay with VEGF, the fold induction at 20 mg/kg worked out at 0.43 and the VEGF turned out to be 27 pg/mL. Moreover, in the assay with erythropoietin (EPO) [1], the “Fold Increase Over Control” value was 17.2 and the EPO was 53.4 mIU/ml. In addition, in assay [2], the “VEGF Fold Increase” value is recorded as 2.2 and the VEGF worked out at 3266 pg/mL.

Take `O=C(O)CNC(=O)c1nc2cc(Cl)ccc2cc1O` [Compound B, [(7-Chloro-3-hydroxy-quinoline-2-carbonyl)-amino]-acetic acid]: in the assay on erythropoietin (EPO) [1], the “Fold Increase Over Control” value worked out at 9.8 and the EPO is 14.2 mIU/ml.

Regarding `O=C(O)CNC(=O)c1nc(Sc2ccc(Cl)cc2)c2ccccc2c1O` [Compound U, {[1-(4-Chloro-phenylsulfanyl)-4-hydroxy-isoquinoline-3-carbonyl]-amino}-acetic acid], in the assay on erythropoietin (EPO) [3], the “EPO Fold Increase” value came out at 1.4 and the EPO stood at 8.9 mIU/ml. For the same compound, in assay [2], the “VEGF Fold Increase” value was 9.7 and the VEGF was 1526.0 pg/mL.

As to `COc1ccc(Oc2ccc3c(Cl)nc(C(=O)NCC(=O)O)c(O)c3c2)cc1` [Compound H, {[1-Chloro-4-hydroxy-6-(4-methoxy-phenoxy)-isoquinoline-3-carbonyl]-amino}-acetic acid], in the assay on erythropoietin (EPO) [1], the “Fold Increase Over Control” value worked out at 5.4 and the EPO amounted to 84.0 mIU/ml.

As to `Cc1nc(C(=O)NCC(=O)O)c(OCc2ccccc2)c2ccc(Oc3ccccc3)cc12` [Compound K, [(4-Benzyloxy-1-methyl-7-phenoxy-isoquinoline-3-carbonyl)-amino]-acetic acid], in the assay on erythropoietin (EPO) [1], the “Fold Increase Over Control” value was 1.8 and the EPO is reported as 57.4 mIU/ml.

As for `Cc1cccc2c(Cl)nc(C(=O)NCC(=O)O)c(O)c12` [Compound D, [(1-Chloro-4-hydroxy-5-methyl-isoquinoline-3-carbonyl)-amino]-acetic acid], in the assay on erythropoietin (EPO) [1], the “Fold Increase Over Control” value is given as 2.7 and the EPO turned out to be 205.7 mIU/ml.

Regarding `O=C(O)CNC(=O)c1ncc2cc(SC3CCCCC3)ccc2c1O` [Compound V, [(7-Cyclohexylsulfanyl-4-hydroxy-isoquinoline-3-carbonyl)-amino]-acetic acid], in the assay with erythropoietin (EPO) [3], the “EPO Fold Increase” value was determined as 3.9 and the EPO is given as 24.2 mIU/ml. Moreover, in assay [2], the “VEGF Fold Increase” value worked out at 13.5 and the VEGF was found to be 2132.0 pg/mL.
